# Results from patent US20140171357A1, “VANCOMYCIN DERIVATIVES” (Seachald Pharmaceuticals, Inc., priority 2011, published 2014).
# How the values were obtained:
# [1] = system: VanA vancomycin-resistant E. faecium (10); assay: MIC broth microdilution, VanA E. faecium; settings: E. faecium, VanA (10)
# [2] = system: heterogeneous VISA (hVISA, 10); assay: MIC broth microdilution, hVISA
# [3] = system: VanA vancomycin-resistant E. faecalis (11); assay: MIC broth microdilution, VanA E. faecalis; settings: E. faecalis, VanA (11)
# [4] = system: Staphylococcus aureus (65 strains); assay: MIC broth microdilution, S. aureus all isolates; settings: S. aureus (65), all resistance subsets
# [5] = system: vancomycin-resistant S. aureus (VRSA, 6); assay: MIC broth microdilution, VRSA
# [6] = system: vancomycin-intermediate S. aureus (VISA, 5); assay: MIC broth microdilution, VISA
# S. aureus ATCC 25923 = assay: Neutropenic murine thigh infection model; settings: for AUCc-t (AUC difference between control and treated animals): 24 h time kill
# [7] = system: Staphylococcus epidermidis (43 strains); assay: MIC broth microdilution, S. epidermidis; settings: S. epidermidis (43)
# [8] = system: vancomycin-susceptible E. faecium (21); assay: MIC broth microdilution, vancomycin-susceptible E. faecium; settings: E. faecium, vancomycin-susceptible (21)
# [9] = system: methicillin-susceptible S. aureus (MSSA, 22); assay: MIC broth microdilution, MSSA; settings: MSSA (22)
# [10] = system: VanB vancomycin-resistant E. faecalis (12); assay: MIC broth microdilution, VanB E. faecalis; settings: E. faecalis, VanB (12)
# [11] = system: β-hemolytic streptococci (23); assay: MIC broth microdilution, β-hemolytic streptococci; settings: for MIC 50% / MIC 90%: β-hemolytic streptococci (23), MHB + lysed horse blood
# S. pneumoniae (22) = assay: MIC broth microdilution, S. pneumoniae; settings: S. pneumoniae (22); MHB + lysed horse blood
# VanC enterococci (22) = assay: MIC broth microdilution, vanC-carrying enterococci; settings: VanC enterococci (22)
# [12] = system: VanB vancomycin-resistant E. faecium (10); assay: MIC broth microdilution, VanB E. faecium; settings: E. faecium, VanB (10)
# [13] = system: vancomycin-susceptible E. faecalis (23); assay: MIC broth microdilution, vancomycin-susceptible E. faecalis; settings: E. faecalis, vancomycin-susceptible (23)
# [14] = system: methicillin-resistant S. aureus (MRSA, 22); assay: MIC broth microdilution, MRSA; settings: MRSA (22)
# [15] = 1 mg/kg single intraperitoneal dose
# [16] = 4 mg/kg single intraperitoneal dose
# [17] = 16 mg/kg single intraperitoneal dose
compound,measurement,setting,value
CNC(CC(C)C)C(=O)NC1C(=O)NC(CC(N)=O)C(=O)NC2C(=O)NC3C(=O)NC(C(=O)NC(C(=O)NCCOCCOCCN)c4cc(O)cc(O)c4-c4cc3ccc4O)C(O)c3ccc(c(Cl)c3)Oc3cc2cc(c3OC2OC(CO)C(O)C(O)C2OC2CC(C)(NCc3ccc(-c4ccc(Cl)cc4)cc3)C(O)C(C)O2)Oc2ccc(cc2Cl)C1O (centres unmarked) [Compound 9],MIC 50%,[1],1 µg/mL
same,MIC 90%,[1],2 µg/mL
same,MIC 50%,[2],0.12 µg/mL
same,MIC 90%,[2],0.12 µg/mL
same,MIC 50%,[3],4 µg/mL
same,MIC 90%,[3],8 µg/mL
same,MIC 50%,[4],0.12 µg/mL
same,MIC 90%,[4],0.5 µg/mL
same,MIC 50%,[5],4 µg/mL
same,MIC 50%,[6],0.25 µg/mL
same,Max Kill (maximum decrease from initial infection level),S. aureus ATCC 25923; [15],0.98 Log10 CFU/thigh
same,AUCc-t (AUC difference between control and treated animals),S. aureus ATCC 25923; [15],7.4 (Log10 CFU/thigh)/hr
same,Max Kill (maximum decrease from initial infection level),S. aureus ATCC 25923; [16],0.5 Log10 CFU/thigh
same,AUCc-t (AUC difference between control and treated animals),S. aureus ATCC 25923; [16],17.2 (Log10 CFU/thigh)/hr
same,Max Kill (maximum decrease from initial infection level),S. aureus ATCC 25923; [17],−0.01 Log10 CFU/thigh
same,AUCc-t (AUC difference between control and treated animals),S. aureus ATCC 25923; [17],24.6 (Log10 CFU/thigh)/hr
same,MIC 50%,[7],0.06 µg/mL
same,MIC 90%,[7],0.06 µg/mL
same,MIC 50%,[8],0.06 µg/mL
same,MIC 90%,[8],0.12 µg/mL
same,MIC 50%,[9],0.12 µg/mL
same,MIC 90%,[9],0.12 µg/mL
same,MIC 50%,[10],0.25 µg/mL
same,MIC 90%,[10],0.25 µg/mL
same,MIC 50%,[11],0.06 µg/mL
same,MIC 90%,[11],0.12 µg/mL
same,MIC 50%,S. pneumoniae (22),0.06 µg/mL
same,MIC 90%,S. pneumoniae (22),0.06 µg/mL
same,MIC 50%,VanC enterococci (22),0.12 µg/mL
same,MIC 90%,VanC enterococci (22),0.5 µg/mL
same,MIC 50%,[12],0.06 µg/mL
same,MIC 90%,[12],0.12 µg/mL
same,MIC 50%,[13],0.12 µg/mL
same,MIC 90%,[13],0.25 µg/mL
same,MIC 50%,[14],0.12 µg/mL
same,MIC 90%,[14],0.12 µg/mL
CNC(CC(C)C)C(=O)NC1C(=O)NC(CC(N)=O)C(=O)NC2C(=O)NC3C(=O)NC(C(=O)NC(C(=O)NCCOCCOCCN(C)C)c4cc(O)cc(O)c4-c4cc3ccc4O)C(O)c3ccc(c(Cl)c3)Oc3cc2cc(c3OC2OC(CO)C(O)C(O)C2OC2CC(C)(NCc3ccc(-c4ccc(Cl)cc4)cc3)C(O)C(C)O2)Oc2ccc(cc2Cl)C1O (centres unmarked) [Compound 10],MIC 50%,[1],1 µg/mL
same,MIC 90%,[1],2 µg/mL
same,MIC 50%,[2],0.12 µg/mL
same,MIC 90%,[2],0.12 µg/mL
same,MIC 50%,[3],4 µg/mL
same,MIC 90%,[3],8 µg/mL
same,MIC 50%,[4],0.06 µg/mL
same,MIC 90%,[4],0.25 µg/mL
same,MIC 50%,[5],4 µg/mL
same,MIC 50%,[6],0.25 µg/mL
same,Max Kill (maximum decrease from initial infection level),S. aureus ATCC 25923; [15],0.43 Log10 CFU/thigh
same,AUCc-t (AUC difference between control and treated animals),S. aureus ATCC 25923; [15],10.7 (Log10 CFU/thigh)/hr
same,Max Kill (maximum decrease from initial infection level),S. aureus ATCC 25923; [16],−0.06 Log10 CFU/thigh
same,AUCc-t (AUC difference between control and treated animals),S. aureus ATCC 25923; [16],22.4 (Log10 CFU/thigh)/hr
same,Max Kill (maximum decrease from initial infection level),S. aureus ATCC 25923; [17],−0.02 Log10 CFU/thigh
same,AUCc-t (AUC difference between control and treated animals),S. aureus ATCC 25923; [17],25.6 (Log10 CFU/thigh)/hr
same,MIC 50%,[7],0.03 µg/mL
same,MIC 90%,[7],0.06 µg/mL
same,MIC 50%,[8],0.06 µg/mL
same,MIC 90%,[8],0.06 µg/mL
same,MIC 50%,[9],0.06 µg/mL
same,MIC 90%,[9],0.06 µg/mL
same,MIC 50%,[10],0.12 µg/mL
same,MIC 90%,[10],0.25 µg/mL
same,fold more potent than teicoplanin and daptomycin,[11]; β-hemolytic streptococci,two- to four
same,fold more potent than vancomycin,[11]; β-hemolytic streptococci,four- to eight
same,MIC 50%,[11],0.03 µg/mL
same,MIC 90%,[11],0.12 µg/mL
same,MIC 50%,S. pneumoniae (22),0.03 µg/mL
same,MIC 90%,S. pneumoniae (22),0.06 µg/mL
same,MIC 50%,VanC enterococci (22),0.12 µg/mL
same,MIC 90%,VanC enterococci (22),0.25 µg/mL
same,MIC 50%,[12],0.06 µg/mL
same,MIC 90%,[12],0.06 µg/mL
same,MIC 50%,[13],0.12 µg/mL
same,MIC 90%,[13],0.12 µg/mL
same,MIC 50%,[14],0.06 µg/mL
same,MIC 90%,[14],0.12 µg/mL
CNC(CC(C)C)C(=O)NC1C(=O)NC(CC(N)=O)C(=O)NC2C(=O)NC3C(=O)NC(C(=O)NC(C(=O)O)c4cc(O)c(CNCCOCCOCCN)c(O)c4-c4cc3ccc4O)C(O)c3ccc(c(Cl)c3)Oc3cc2cc(c3OC2OC(CO)C(O)C(O)C2OC2CC(C)(NCc3ccc(-c4ccc(Cl)cc4)cc3)C(O)C(C)O2)Oc2ccc(cc2Cl)C1O (centres unmarked) [Compound 11],MIC 50%,[1],2 µg/mL
same,MIC 90%,[1],4 µg/mL
same,MIC 50%,[2],0.12 µg/mL
same,MIC 90%,[2],0.12 µg/mL
same,MIC 50%,[3],4 µg/mL
same,MIC 90%,[3],8 µg/mL
same,MIC 50%,[4],0.12 µg/mL
same,MIC 90%,[4],0.5 µg/mL
same,MIC 50%,[5],4 µg/mL
same,MIC 50%,[6],0.25 µg/mL
same,Max Kill (maximum decrease from initial infection level),S. aureus ATCC 25923; [15],0.59 Log10 CFU/thigh
same,AUCc-t (AUC difference between control and treated animals),S. aureus ATCC 25923; [15],12.9 (Log10 CFU/thigh)/hr
same,Max Kill (maximum decrease from initial infection level),S. aureus ATCC 25923; [16],0.46 Log10 CFU/thigh
same,AUCc-t (AUC difference between control and treated animals),S. aureus ATCC 25923; [16],10.8 (Log10 CFU/thigh)/hr
same,Max Kill (maximum decrease from initial infection level),S. aureus ATCC 25923; [17],−0.39 Log10 CFU/thigh
same,AUCc-t (AUC difference between control and treated animals),S. aureus ATCC 25923; [17],34.7 (Log10 CFU/thigh)/hr
same,MIC 50%,[7],0.06 µg/mL
same,MIC 90%,[7],0.06 µg/mL
same,MIC 50%,[8],0.06 µg/mL
same,MIC 90%,[8],0.12 µg/mL
same,MIC 50%,[9],0.12 µg/mL
same,MIC 90%,[9],0.12 µg/mL
same,MIC 50%,[10],0.25 µg/mL
same,MIC 90%,[10],0.25 µg/mL
same,MIC 50%,[11],0.06 µg/mL
same,MIC 90%,[11],0.12 µg/mL
same,MIC 50%,S. pneumoniae (22),0.06 µg/mL
same,MIC 90%,S. pneumoniae (22),0.06 µg/mL
same,MIC 50%,VanC enterococci (22),0.25 µg/mL
same,MIC 90%,VanC enterococci (22),0.5 µg/mL
same,MIC 50%,[12],0.06 µg/mL
same,MIC 90%,[12],0.12 µg/mL
same,MIC 50%,[13],0.25 µg/mL
same,MIC 90%,[13],0.25 µg/mL
same,MIC 50%,[14],0.12 µg/mL
same,MIC 90%,[14],0.12 µg/mL
CNC(CC(C)C)C(=O)NC1C(=O)NC(CC(N)=O)C(=O)NC2C(=O)NC3C(=O)NC(C(=O)NC(C(=O)O)c4cc(O)c(CNCCOCCOCCN(C)C)c(O)c4-c4cc3ccc4O)C(O)c3ccc(c(Cl)c3)Oc3cc2cc(c3OC2OC(CO)C(O)C(O)C2OC2CC(C)(NCc3ccc(-c4ccc(Cl)cc4)cc3)C(O)C(C)O2)Oc2ccc(cc2Cl)C1O (centres unmarked) [Compound 12],MIC 50%,[1],2 µg/mL
same,MIC 90%,[1],4 µg/mL
same,MIC 50%,[2],0.12 µg/mL
same,MIC 90%,[2],0.12 µg/mL
same,MIC 50%,[3],8 µg/mL
same,MIC 90%,[3],16 µg/mL
same,MIC 50%,[4],0.12 µg/mL
same,MIC 90%,[4],0.5 µg/mL
same,MIC 50%,[5],8 µg/mL
same,MIC 50%,[6],0.25 µg/mL
same,Max Kill (maximum decrease from initial infection level),S. aureus ATCC 25923; [15],1.1 Log10 CFU/thigh
same,AUCc-t (AUC difference between control and treated animals),S. aureus ATCC 25923; [15],6.1 (Log10 CFU/thigh)/hr
same,Max Kill (maximum decrease from initial infection level),S. aureus ATCC 25923; [16],−0.03 Log10 CFU/thigh
same,AUCc-t (AUC difference between control and treated animals),S. aureus ATCC 25923; [16],17.6 (Log10 CFU/thigh)/hr
same,Max Kill (maximum decrease from initial infection level),S. aureus ATCC 25923; [17],0.0005 Log10 CFU/thigh
same,AUCc-t (AUC difference between control and treated animals),S. aureus ATCC 25923; [17],29.3 (Log10 CFU/thigh)/hr
same,MIC 50%,[7],0.06 µg/mL
same,MIC 90%,[7],0.12 µg/mL
same,MIC 50%,[8],0.12 µg/mL
same,MIC 90%,[8],0.12 µg/mL
same,MIC 50%,[9],0.12 µg/mL
same,MIC 90%,[9],0.12 µg/mL
same,MIC 50%,[10],0.25 µg/mL
same,MIC 90%,[10],0.25 µg/mL
same,MIC 50%,[11],0.06 µg/mL
same,MIC 90%,[11],0.06 µg/mL
same,MIC 50%,S. pneumoniae (22),0.06 µg/mL
same,MIC 90%,S. pneumoniae (22),0.06 µg/mL
same,MIC 50%,VanC enterococci (22),0.25 µg/mL
same,MIC 90%,VanC enterococci (22),0.5 µg/mL
same,MIC 50%,[12],0.12 µg/mL
same,MIC 90%,[12],0.12 µg/mL
same,MIC 50%,[13],0.25 µg/mL
same,MIC 90%,[13],0.25 µg/mL
same,MIC 50%,[14],0.12 µg/mL
same,MIC 90%,[14],0.12 µg/mL
